“Also recorded” adds a separate entry of the source.
Assays:
ΔF508-CFTR = biological target: T1, ΔF508-CFTR (Homo sapiens, UniProt P13569, DEL508-508); test: Short-circuit current in FRT cells expressing ΔF508-CFTR after corrector (VX-809); assay type: cell-based; conditions: overnight corrector
T1 construct: expressed in transfected cells; host or cells: Fischer rat thyroid (FRT) cells
Experimental: FIGS. 9A-9E. Characterization of CFTR activation by CFTRact-J027. Short-circuit current measured in FRT cells expressing human wild-type CFTR (FIG. 9A) and ΔF508-CFTR (FIG. 9C) showing responses to indicated concentrations of forskolin (fsk), CFTRact-J027, and VX-770. The ΔF508-CFTR-expressing FRT cells were corrected with 3 μM VX-809 at 37° C. for 24 h before measurement. CFTRinh-172 (Inh-172, 10 μM) was added where indicated. FIG. 9B. CFTRact-J027 concentration-dependent activation of wild-type CFTR Cl^− current (S.E.; n=3 cultures). FIG. 9D. Short-circuit current in mouse colon showing responses to indicated concentrations of forskolin (fsk), CFTRact-J027, and CFTRinh-172. FIG. 9E. Assay of cAMP concentration in FRT cells measured following 10-min incubation with indicated concentrations of forskolin and 5 μM CFTRact-J027. Positive controls included forskolin (100 nM and 20 μM), and forskolin plus 3-isobutyl-1-methylxanthine (IBMX, 100 μM) (mean±SE, n=4-8).
The increase in current at high CFTRact-J027 was further increased by forskolin, which may be a consequence of activation of a basolateral membrane cAMP-sensitive K^+ channel that increases the driving force for apical membrane Cl^− secretion.

[1] = tested on: isolated mouse ileum and colon strips; test: Ex vivo contractility of isolated ileum and colon strips; conditions: alone or with 10 μM loperamide
Experimental: Whole-gut transit time was determined using an orally administered marker (200 μL, 5% Evans Blue, 5% gum Arabic) and measuring the time of its appearance in stool. Mice were administered loperamide and CFTRact-J027 (10 mg/kg) or vehicle intraperitoneally at zero time. For ex vivo contractility measurements, mice were euthanized by avertin overdose (200 mg/kg, 2,2,2-tribromethanol, Sigma-Aldrich) and ileum and colon segments of ˜2 cm length were isolated and washed with Krebs-Henseleit buffer. The ends of the intestinal segments were tied, connected to a force transducer (Biopac Systems, Goleta, Calif., USA) and tissues were transferred to an organ chamber (Biopac Systems) containing Krebs-Henseleit buffer at 37° C. aerated with 95% O2, 5% CO2. Ileum and colon were stabilized for 60 min with resting tensions of 0.5 and 0.2 g respectively, and solutions were changed every 15 min. Effects of CFTRact-J027 on baseline and loperamide-suppressed isometric intestinal contractions were recorded.
In vivo intestinal transit and ex vivo intestinal contractility. Whole-gut transit time was determined using an orally administered marker (200 μL, 5% Evans Blue, 5% gum Arabic) and measuring the time of its appearance in stool. […] Effects of CFTRact-J027 on baseline and loperamide-suppressed isometric intestinal contractions were recorded.

closed mid-jejunal loops = test: In vivo intestinal fluid secretion in closed mid-jejunal loops; parameters: species or system mouse; conditions: 90 min
Experimental: Mice (wildtype or CF) were given access to 5% dextrose water but not solid food for 24 h before experiments. Mice were anesthetized with isoflurane and body temperature was maintained during surgery at 36-38° C. using a heating pad. A small abdominal incision was made to expose the small intestine, and closed mid-jejunal loops (length 2-3 cm) were isolated by sutures. Loops were injected with 100 μL vehicle alone or 100 μg CFTRact-J027 in vehicle. The abdominal incision was closed with sutures, and mice were allowed to recover from anesthesia. Intestinal loops were removed at 90 min and loop length and weight were measured to quantify fluid secretion. Intestinal absorption was measured in CF mice (to prevent secretion) as described above, except that the loops were removed at 0 or 30 min. Absorption was calculated as 1−(loop weight at 0 min−loop weight at 30 min)/loop weight at 0 min.
In vivo intestinal secretion and absorption. Mice (wildtype or CF) were given access to 5% dextrose water but not solid food for 24 h before experiments. […] Intestinal loops were removed at 90 min and loop length and weight were measured to quantify fluid secretion. Intestinal absorption was measured in CF mice (to prevent secretion) as described above, except that the loops were removed at 0 or 30 min. Absorption was calculated as 1−(loop weight at 0 min−loop weight at 30 min)/loop weight at 0 min.

mice = test: Ocular toxicity after chronic topical dosing (slit-lamp, lissamine green staining); assay type: in vivo; conditions: two weeks, three times per day topical
Experimental: (§1) To assess corneal epithelial disruption, 5 μL of lissamine green (LG) dye (1%) was applied to the ocular surface of isofluorane-anesthetized mice. Photographs of the eye were taken using a Nikon Digital camera adapted to an Olympus Zoom Stereo Microscope (Olympus, Center Valley, Pa., USA). Each corneal quadrant was scored on a 3-point scale by one blinded, trained observer, with the extent of staining in each quadrant classified as: 0, no staining; 1, sporadic (involving <25% of the total surface) staining; grade 2, diffuse punctate staining (25-75%); and grade 3, coalesced punctate staining (≥75%). The total grade is reported as the sum of scores from all four quadrants, ranging from 0 to 12.
as §1, with “Lissamine green staining. To” for “To”

[2] = Tear film pharmacokinetics (LC/MS of tear washes)
[3] = Chemical stability in ophthalmic vehicle (LC/MS); assay type: physicochemical; conditions: 100 μM, 0.3% CMC in Ringer's solution, 24 h at 40° C.

T1 sequence (P13569 with tags, fused parts or gaps DEL508-508): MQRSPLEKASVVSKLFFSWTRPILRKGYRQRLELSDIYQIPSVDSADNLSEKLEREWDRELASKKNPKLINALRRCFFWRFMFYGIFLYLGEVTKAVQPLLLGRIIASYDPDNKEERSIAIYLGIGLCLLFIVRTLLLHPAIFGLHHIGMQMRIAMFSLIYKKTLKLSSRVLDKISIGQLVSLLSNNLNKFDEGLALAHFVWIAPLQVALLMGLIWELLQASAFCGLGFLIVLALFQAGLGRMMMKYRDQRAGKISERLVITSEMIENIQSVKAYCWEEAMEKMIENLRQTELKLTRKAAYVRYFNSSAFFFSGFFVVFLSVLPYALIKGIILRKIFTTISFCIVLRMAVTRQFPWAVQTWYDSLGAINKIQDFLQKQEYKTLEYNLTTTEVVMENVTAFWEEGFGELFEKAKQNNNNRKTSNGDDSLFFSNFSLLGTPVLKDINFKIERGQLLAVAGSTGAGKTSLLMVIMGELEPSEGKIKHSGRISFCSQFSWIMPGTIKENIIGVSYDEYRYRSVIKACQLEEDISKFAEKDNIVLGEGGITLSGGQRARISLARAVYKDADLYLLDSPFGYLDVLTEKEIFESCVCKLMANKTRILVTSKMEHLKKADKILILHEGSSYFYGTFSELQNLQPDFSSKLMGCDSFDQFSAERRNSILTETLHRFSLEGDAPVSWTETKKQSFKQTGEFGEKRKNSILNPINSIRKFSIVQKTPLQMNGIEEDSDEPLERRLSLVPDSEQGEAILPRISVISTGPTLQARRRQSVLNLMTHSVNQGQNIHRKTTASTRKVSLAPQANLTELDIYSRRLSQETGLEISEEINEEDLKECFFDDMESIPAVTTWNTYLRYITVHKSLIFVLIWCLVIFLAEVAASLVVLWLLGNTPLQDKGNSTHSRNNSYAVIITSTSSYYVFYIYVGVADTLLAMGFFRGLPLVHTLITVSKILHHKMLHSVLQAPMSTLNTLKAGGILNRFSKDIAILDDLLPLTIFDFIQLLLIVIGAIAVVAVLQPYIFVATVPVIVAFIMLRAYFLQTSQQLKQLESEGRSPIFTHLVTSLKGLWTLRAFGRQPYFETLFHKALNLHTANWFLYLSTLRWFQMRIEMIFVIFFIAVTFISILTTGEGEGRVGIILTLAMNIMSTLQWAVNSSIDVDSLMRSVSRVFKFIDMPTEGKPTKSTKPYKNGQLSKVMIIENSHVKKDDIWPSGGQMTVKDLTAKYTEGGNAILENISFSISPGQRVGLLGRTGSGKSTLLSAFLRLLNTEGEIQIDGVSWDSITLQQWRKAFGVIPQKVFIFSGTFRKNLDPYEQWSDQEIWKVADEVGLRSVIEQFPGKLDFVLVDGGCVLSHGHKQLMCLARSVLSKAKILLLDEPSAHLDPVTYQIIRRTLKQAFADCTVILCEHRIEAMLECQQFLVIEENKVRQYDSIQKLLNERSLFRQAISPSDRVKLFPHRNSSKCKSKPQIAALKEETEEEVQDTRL

## Nc1ccc([N+](=O)[O-])cc1-c1nc2ccccc2n(Cc2ccccc2)c1=O [CFTRact-J027, 3-(2-amino-5-nitrophenyl)-1-benzylquinoxalin-2(1H)-one]
ΔF508-CFTR
  potentiation of ΔF508-CFTR: substantially less potent than ivacaftor; also recorded: only a weak potentiator
[1]
  intestinal contraction: no effect
Closed mid-jejunal loops; 100 μg per loop, wild-type mice
  increase in loop weight/length ratio: 140%
Closed mid-jejunal loops; CF mice
  loop fluid secretion in cystic fibrosis mice: without effect
mice
  LG staining after chronic dosing: no corneal or conjunctival epithelial disruption
  ocular toxicity (slit-lamp: conjunctival hyperemia, anterior chamber inflammation, lens clarity): no signs of ocular toxicity

## CCN(CC)c1nc(Nc2ccccc2)nc(OC(C(F)(F)F)C(F)(F)F)n1 [CFTRact-K089, N,N-Diethyl-6-[(1,1,1,3,3,3-hexafluoropropan-2-yl)oxy]-N′-phenyl-1,3,5-triazine-2,4-diamine]
mice
  LG staining after chronic dosing: no corneal or conjunctival epithelial disruption
  ocular toxicity (slit-lamp: conjunctival hyperemia, anterior chamber inflammation, lens clarity): no signs of ocular toxicity
[2]; 0.1 nmol (2 μL, 50 μM) instilled
  amount recovered from tear fluid at six hours: 0.011 ± 0.004 pmol
[2]; 0.1 nmol instilled
  duration of predicted therapeutic levels in tear fluid: at least six
[2]; topical
  tear film bioavailability, in words: sustained tear film bioavailability

## CNc1nc(Nc2ccccc2)nc(OCC(F)(F)C(F)F)n1 [compound 12, N-methyl-N′-phenyl-6-(2,2,3,3-tetrafluoropropoxy)-1,3,5-triazine-2,4-diamine]
[3]
  chemical stability in ophthalmic vehicle: stable at 100 μM in an ophthalmic vehicle; also recorded: remained chemically stable
